The source of these data is paper PMC9716045 (Journal of Pesticide Science, 2022).

For orientation: IC50 means the midpoint of a concentration-inhibition curve.

In one assay the test system is DHODH of A. fumigatus. The conditions noted are these: read-out: IC50 value for DHODH; cited from earlier work.
The test system of another assay is DHODH of mice. The conditions noted are these: read-out: IC50 value for DHODH; cited from earlier work.
A further assay deals with DHODH of rats. The conditions noted are these: read-out: IC50 value for DHODH; cited from earlier work.
For a further assay, the system named is DHODH of humans. The conditions noted are these: read-out: IC50 value for DHODH; cited from earlier work.
A further assay has as its system P. oryzae 40901. The class given is cell-based, Pyricularia oryzae.
Another assay relates to P. oryzae. The assay is classed as cell-based, Pyricularia oryzae.
The subject of a further assay is Fusarium graminearum. The following applies: cited from earlier work.
The subject of the next assay is Sclerotinia sclerotiorum. The following applies: cited from earlier work.

`Cc1cc(-c2ccccc2)c(C(=O)C(=O)Nc2ccc(N3CCN(c4ncc(F)cn4)CC3)cc2)n1C` [F901318, olorofim]: the IC50 in the assay with DHODH of A. fumigatus is 44 ± 10 nM.
On to `C/C(O)=C(\C#N)C(=O)Nc1ccc(C(F)(F)F)cc1` [A77-1726, teriflunomide], for which the IC50 was 82 ± 21 nM in the assay on DHODH of mice, 18 ± 3 nM in the assay on DHODH of rats and 773 ± 78 nM with DHODH of humans.
On to `CC1(C)N=C(c2cnc3ccccc3c2)c2ccccc2C1(F)F` [quinofumelin, 3-(4,4-difluoro-3,3-dimethyl-3,4-dihydroisoquinolin-1-yl)quinoline], for which, in the assay with P. oryzae 40901, the “mycelial growth on minimal medium agar plates” value is on record as “could not be recognized”, the “mycelial growth with exogenous orotate at high quinofumelin concentration” value is “slow mycelial growth”, the “recovery of mycelial growth by exogenous dihydroorotate” value was “did not recover” and the “recovery of mycelial growth by exogenous orotate” value is reported as “recovered”. In the assay on P. oryzae 40901, the “recovery of mycelial growth by exogenous uracil” value is on record as “restored”. For the same compound, the “antifungal activity on PDA medium” value in the assay on P. oryzae is listed as “moderate antifungal activity”. Also, the “antifungal activity on PDA medium” value with Fusarium graminearum is “strong antifungal activity”. The “antifungal activity on PDA medium” value with Sclerotinia sclerotiorum was “strong antifungal activity”.
